Counter-ions that a name gives are not always drawn. Like-named read-outs stand apart in the source and are kept apart here.
Tests used:
5HT2C receptor [1] = target: T1, 5HT2C receptor (Rattus norvegicus, UniProt P08909); experiment: [3H]-5-HT binding assay (Method II b); design: expressed in transfected cells; host or cells: clonal 5-HT1C cell line
T1 sequence (P08909 33-460): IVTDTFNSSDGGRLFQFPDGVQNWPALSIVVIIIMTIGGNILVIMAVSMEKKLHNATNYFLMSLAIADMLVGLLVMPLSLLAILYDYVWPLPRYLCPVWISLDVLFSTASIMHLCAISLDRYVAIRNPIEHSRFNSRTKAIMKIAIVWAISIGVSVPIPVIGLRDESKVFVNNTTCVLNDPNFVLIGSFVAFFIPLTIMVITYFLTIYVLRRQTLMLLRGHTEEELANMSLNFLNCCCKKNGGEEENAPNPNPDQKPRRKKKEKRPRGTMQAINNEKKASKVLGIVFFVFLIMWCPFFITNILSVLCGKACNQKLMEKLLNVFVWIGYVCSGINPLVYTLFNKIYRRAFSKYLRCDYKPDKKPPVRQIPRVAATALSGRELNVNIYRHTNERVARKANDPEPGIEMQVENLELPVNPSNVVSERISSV
From the text: b) For the binding to the 5HT2C receptor in accordance with the [3H]-5-HT binding assay according to the method of S. J. Peroutka et al., Brain Research 584, 191-196 (1992).
(§1) The pki values (pki =-log^10 Ki) of the test substances are given. […] [L] is the concentration of ligand and the KD value is the dissociation constant of the ligand.

human-5HT1A receptors = target: T2, human-5HT1A receptors (Homo sapiens, UniProt P08908); experiment: [3H]-5-HT displacement on recombinant human 5HT1A receptors expressed in 3T3 cells of mice (Method II a); assay type: binding
T2 construct: expressed in transfected cells; host or cells: mouse 3T3 cells
T2 sequence (P08908 1-422): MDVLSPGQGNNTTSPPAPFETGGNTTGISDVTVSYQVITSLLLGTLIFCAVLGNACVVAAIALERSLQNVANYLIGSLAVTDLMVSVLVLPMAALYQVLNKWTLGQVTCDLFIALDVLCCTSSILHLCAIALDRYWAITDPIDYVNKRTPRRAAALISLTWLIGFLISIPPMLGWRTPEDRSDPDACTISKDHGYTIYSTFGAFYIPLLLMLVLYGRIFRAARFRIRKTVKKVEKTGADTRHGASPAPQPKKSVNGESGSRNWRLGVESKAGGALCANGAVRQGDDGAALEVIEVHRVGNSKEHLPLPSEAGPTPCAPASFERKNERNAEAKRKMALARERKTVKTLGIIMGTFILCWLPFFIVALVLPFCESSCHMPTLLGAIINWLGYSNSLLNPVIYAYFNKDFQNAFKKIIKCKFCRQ
From the text: [L] is the concentration of ligand and the KD value is the dissociation constant of the ligand.

5HT2C receptor [2] = target: T1, 5HT2C receptor; experiment: Penile erection (rats); assay type: in vivo; design: from tissue; host or cells: living rat; details: s.c., number of penile erections within 45 minutes following administration
Method: It has been shown that penile erection is dependent on the stimulation of the 5HT2C receptor (see Berendsen & Broekkamp, Eur. J. Pharmacol, 135, 179-184 (1987)).
The number of penile erections was determined within 45 minutes following administration of the test substance to the animal.

5HT2A receptor [3] = target: T3, 5HT2A receptor (Homo sapiens, UniProt P28223); experiment: [3H]-DOB binding assay (Method II c)
T3 construct: expressed in transfected cells; host or cells: transfected mammalian cells (inferred from the cited method)
From the text: c) For the binding to the 5HT2A receptor in accordance with the [3H]-DOB binding assay according to the method of T. Branchek et al., Molecular Pharmacology 38, 604-609 (1990).
as §1

5HT2C receptor [4] = target: T4, 5HT2C receptor (Sus scrofa, UniProt K7GSR7); experiment: 3H-mesulergine binding assay (Method I b)
T4 construct: from tissue
T4 sequence (K7GSR7 1-457): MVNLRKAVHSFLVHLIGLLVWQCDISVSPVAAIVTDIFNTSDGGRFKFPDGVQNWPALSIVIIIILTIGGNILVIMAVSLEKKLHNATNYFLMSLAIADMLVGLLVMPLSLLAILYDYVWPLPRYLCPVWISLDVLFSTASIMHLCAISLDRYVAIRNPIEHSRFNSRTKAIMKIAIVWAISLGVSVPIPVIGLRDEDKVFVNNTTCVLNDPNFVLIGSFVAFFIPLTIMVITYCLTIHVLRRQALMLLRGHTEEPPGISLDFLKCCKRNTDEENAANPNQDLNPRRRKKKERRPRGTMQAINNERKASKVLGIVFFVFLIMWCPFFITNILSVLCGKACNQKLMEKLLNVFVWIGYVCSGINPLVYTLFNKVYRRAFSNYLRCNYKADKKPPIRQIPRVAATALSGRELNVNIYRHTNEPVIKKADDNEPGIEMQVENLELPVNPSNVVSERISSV
Method: (§2) The binding of the compounds of formula I in accordance with the invention to serotonin receptors was determined in vitro by standard methods. The preparations were investigated in accordance with the assays given hereinafter:
b) For the binding to the 5HT2C receptor in accordance with the ^3 H-mesulergine binding assay according to the method of A. Pazos et al., Europ. J. Pharmacol. 106, 539-546 or. D. Hoyer, Receptor Research 8, 59-81 (1988).

5HT1A receptor = experiment: 3H-8-OH-DPAT binding assay (Method I a); details: read-out: IC50, test method a
Method: The binding of the compounds of formula I in accordance with the invention to serotonin receptors was determined in vitro by standard methods. The preparations were investigated in accordance with the assays given hereinafter: […]

5HT2A receptor [5] = target: T5, 5HT2A receptor (Rattus norvegicus, UniProt P14842); experiment: biochemical; assay type: binding
T5 construct: from tissue; host or cells: rat frontal cortex membranes (inferred from the cited method)
Method: as §2
c) For the binding to the 5HT2A receptor in accordance with the ^3 H-ketanserine binding assay according to the method of J. E. Leysen, Molecular Pharmacology 21, 301-304 (1981).

[6] = rat, sc, 0.75 h, read-out: ED50
[7] = 5HT2C, [3H]-5-HT, Method II, read-out: pki, test method b (converted)
[8] = human 5HT1A, [3H]-5-HT (1 nM), 3T3 cell membranes, Method II, read-out: pki, test method a (converted)

T5 sequence (P14842 whole entry): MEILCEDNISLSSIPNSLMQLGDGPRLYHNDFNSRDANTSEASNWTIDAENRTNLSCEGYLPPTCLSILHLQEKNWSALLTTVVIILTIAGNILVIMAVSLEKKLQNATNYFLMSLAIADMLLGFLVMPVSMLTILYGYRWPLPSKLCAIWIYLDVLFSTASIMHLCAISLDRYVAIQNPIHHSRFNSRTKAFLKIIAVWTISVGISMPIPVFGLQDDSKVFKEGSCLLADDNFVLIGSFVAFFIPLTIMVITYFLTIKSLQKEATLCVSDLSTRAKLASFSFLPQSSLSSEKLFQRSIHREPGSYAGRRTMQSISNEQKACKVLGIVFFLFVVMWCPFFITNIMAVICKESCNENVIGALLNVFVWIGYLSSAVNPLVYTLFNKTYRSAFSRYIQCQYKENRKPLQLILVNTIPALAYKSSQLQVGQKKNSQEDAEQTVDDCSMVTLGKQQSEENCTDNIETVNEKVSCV
T3 sequence (P28223 whole entry): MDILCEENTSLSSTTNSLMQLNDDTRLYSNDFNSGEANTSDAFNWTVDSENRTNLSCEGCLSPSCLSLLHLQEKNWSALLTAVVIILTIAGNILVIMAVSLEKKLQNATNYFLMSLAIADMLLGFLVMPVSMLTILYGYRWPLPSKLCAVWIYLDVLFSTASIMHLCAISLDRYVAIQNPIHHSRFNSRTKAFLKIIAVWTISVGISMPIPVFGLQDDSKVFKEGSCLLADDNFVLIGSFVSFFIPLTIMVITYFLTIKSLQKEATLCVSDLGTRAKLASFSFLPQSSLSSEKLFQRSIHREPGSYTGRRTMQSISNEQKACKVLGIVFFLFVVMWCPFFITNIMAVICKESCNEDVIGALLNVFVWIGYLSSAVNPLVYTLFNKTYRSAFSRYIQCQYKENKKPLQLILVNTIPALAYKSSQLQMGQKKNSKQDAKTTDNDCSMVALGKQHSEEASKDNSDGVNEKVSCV

Row | SMILES | Ki (5HT2C receptor [1]) | Ki (human-5HT1A receptors) | ED50 (5HT2C receptor [2]; [6]) | Ki (5HT2A receptor [3]) | IC50 (5HT2C receptor [4]) | IC50 (5HT1A receptor) | IC50 (5HT2A receptor [5]) | ED50 (5HT2C receptor [2]) | Ki (5HT2C receptor [1]; [7]) | Ki (human-5HT1A receptors; [8])
1 | Cc1ccc2c(c1)-c1c(ccn1C[C@H](C)N)C2(C)C.O=C(O)/C=C/C(=O)O [Example 1, (S)-2-(4,4,7-trimethyl-1,4-dihydro-indeno[1,2-b]pyrrol-1-yl)-1-methyl-ethylamine fumarate (1:1)] | 3.24 nM | 2190 nM | 0.9 mg/kg | 53.7 nM | – | – | – | – | – | –
2 | COc1ccc2c(c1)-c1c(ccn1C[C@H](C)N)C2(C)C.O=C(O)/C=C/C(=O)O [Example 2, (S)-2-(7-methoxy-4,4-dimethyl-1,4-dihydro-indeno[1,2-b]pyrrol-1-yl)-1-methyl-ethylamine fumarate (1:1)] | 0.363 nM | 4070 nM | 0.5 mg/kg | 9.33 nM | – | – | – | – | – | –
3 | COc1ccc2c(c1)-c1c(ccn1C[C@H](C)N)C2 [Example 3, (S)-2-(7-methoxy-1,4-dihydro-indeno[1,2-b]pyrrol-1-yl)-1-methyl-ethylaminefumarate (1:0.5)] | 6.92 nM | – | 1.2 mg/kg | 75.9 nM | 11.4 nM | 2830 nM | 2160 nM | – | – | –
4 | C[C@H](N)Cn1ccc2c1-c1cc(Cl)ccc1C2 [Example 4, (S)-2-(7-chloro-1,4-dihydro-indeno[1,2-b]pyrrol-1-yl)-1-methyl-ethylamine fumarate (1:0.5)] | – | – | 2.7 mg/kg | – | 49.3 nM | 3230 nM | 2170 nM | – | – | –
5 | COc1ccc2c(c1)-c1c(ccn1C[C@H](C)N)CC2.O=C(O)/C=C/C(=O)O [Example 5, (S)-2-(4,5-dihydro-8-methoxy-1H-benz[g]indol-1-yl)-1-methyl-ethylamine fumarate (1:1)] | – | – | – | – | 20.2 nM | 2560 nM | 591 nM | 3.20 mg/kg, s.c. | – | –
6 | C[C@H](N)Cn1ccc2c1-c1cc(F)ccc1C2(C)C [Example 9, (S)-2-(7-fluoro-4,4-dimethyl-1,4-dihydro-indeno[1,2-b]pyrrol-1-yl)-1-methyl-ethylamine fumarate (1:1)] | 5.13 nM | 2750 nM | – | 34.7 nM | – | – | – | – | – | –
7 | CCC1(CC)c2ccc(OC)cc2-c2c1ccn2C[C@H](C)N [Example 12, (S)-2-(7-methoxy-4,4-diethyl-1,4-dihydro-indeno[1,2-b]pyrrol-1-yl)-1-methyl-ethylamine fumarate (1:0.5)] | – | 10000 nM | – | 115 nM | – | – | – | – | 10 nM | –
8 | C[C@H](N)Cn1ccc2c1-c1cc(-c3ccccc3)ccc1C2 [Example 14, (S)-2-(7-phenyl-1,4-dihydro-indeno[1,2-b]pyrrol-1-yl)-1-methyl-ethylamine fumarate (1:0.5)] | 16.6 nM | – | – | 24 nM | – | – | – | – | – | 10000 nM
9 | CCc1ccc2c(c1)-c1c(ccn1C[C@H](C)N)C2 [Example 17, (S)-2-(7-ethyl-1,4-dihydro-indeno[1,2-b]pyrrol-1-yl)-1-methyl-ethylamine fumarate (1:0.5)] | 18.2 nM | – | – | 562 nM | – | – | – | – | – | 10000 nM
10 | C[C@H](N)Cn1ccc2c1-c1cc(F)c(F)cc1C2 [Example 25, (S)-2-(6,7-difluoro-1,4-dihydro-indeno[1,2-b]pyrrol-1-yl)-1-methyl-ethylamine fumarate (1:1)] | – | 10000 nM | – | 550 nM | – | – | – | – | 41.7 nM | –
11 | COc1cc2c(cc1Cl)C(C)(C)c1ccn(C[C@H](C)N)c1-2 [Example 26, (S)-2-(6-chloro-7-methoxy-4,4-dimethyl-1,4-dihydro-indeno[1,2-b]pyrrol-1-yl)-1-methyl-ethylamine fumarate (1:1)] | – | 5620 nM | – | 67.6 nM | – | – | – | – | 26.3 nM | –
12 | Cc1ccc2c(c1)-c1c(ccn1C[C@H](C)N)C21CCCC1 [Example 44, (S)-1-methyl-2-(7'-methyl-1',4'-dihydro-spiro[cyclopentane]-1,4'-indeno[1,2-b]pyrrol-1-yl)-ethylamine fumarate (1:1)] | 79.4 nM | – | – | 269 nM | – | – | – | – | – | 1860 nM

From patent US5646173A, “Tricyclic pyrrole derivatives useful as 5-HT selective agents” (Hoffmann-La Roche Inc., priority 1993, dated 1997)
